Earlier results in patent publication US20050129719A1, “Concentrated emulsion formulation for silatecan” (priority 2003, published 2005).

water-solubility: extremely low water-solubility
SMILES: CC[C@@]1(O)C(=O)OCc2c1cc1n(c2=O)Cc2c-1nc1ccc(O)cc1c2[Si](C)(C)C(C)(C)C [Silatecan, 7-t-butyldimethylsilyl-10-hydroxycamptothecin]
